PMC5218480 (PLoS ONE, 2017)

System: MV-4-11 cells
Test: Gene expression microarray analysis (Affymetrix PrimeView) and GSEA
Format: cell-based, human
Set-up: RFU PODN (11730768_x_at) / Fold change /veh PODN (11730768_x_at) / RFU LINC00158 (11744669_a_at) / Fold change /veh LINC00158 (11744669_a_at) / RFU DUSP10 (11751237_a_at) / Fold change /veh DUSP10 (11751237_a_at) / RFU ID3 (11757404_x_at) / Fold change /veh ID3 (11757404_x_at) / RFU PLEKHG5 (11737974_s_at) / Fold change /veh PLEKHG5 (11737974_s_at) / RFU LRRC4B (11730491_at) / Fold change /veh LRRC4B (11730491_at) / RFU GIMAP4 (11747438_a_at) / Fold change /veh GIMAP4 (11747438_a_at) / RFU KRT8 (11758183_x_at) / Fold change /veh KRT8 (11758183_x_at) / RFU CNN1 (11734310_a_at) / Fold change /veh CNN1 (11734310_a_at) / RFU VPS37D (11726825_at) / Fold change /veh VPS37D (11726825_at) / RFU C10orf10 (11716522_x_at) / Fold change /veh C10orf10 (11716522_x_at) / RFU KIR2DL2 /// KIR2DL4 /// KIR2DL5A /// KIR2DL5B /// KIR2DS1 /// KIR2DS2 /// KIR2DS3 /// KIR2DS4 /// KIR3DL3 /// KIR3DL3 /// KIR3DS1 (11738374_at) / Fold change /veh KIR2DL2 /// KIR2DL4 /// KIR2DL5A /// KIR2DL5B /// KIR2DS1 /// KIR2DS2 /// KIR2DS3 /// KIR2DS4 /// KIR3DL3 /// KIR3DL3 /// KIR3DS1 (11738374_at) / RFU C1QL1 (11718748_at) / Fold change /veh C1QL1 (11718748_at) / RFU TMPRSS4 (11747572_a_at) / Fold change /veh TMPRSS4 (11747572_a_at) / RFU HAMP (11756126_x_at) / Fold change /veh HAMP (11756126_x_at) / RFU RNFT2 (11725882_a_at) / Fold change /veh RNFT2 (11725882_a_at) / RFU NR4A2 (11747474_a_at) / Fold change /veh NR4A2 (11747474_a_at) / RFU ABCC12 (11746883_a_at) / Fold change /veh ABCC12 (11746883_a_at) / RFU TMEM136 (11760407_x_at) / Fold change /veh TMEM136 (11760407_x_at) / RFU CLDN22 /// WWC2 (11732394_at) / Fold change /veh CLDN22 /// WWC2 (11732394_at) / RFU HLA-DPB1 (11760878_x_at) / Fold change /veh HLA-DPB1 (11760878_x_at) / RFU SPINT1 (11716480_a_at) / Fold change /veh SPINT1 (11716480_a_at) / RFU GAP43 (11754022_s_at) / Fold change /veh GAP43 (11754022_s_at) / RFU A4GNT (11735810_at) / Fold change /veh A4GNT (11735810_at) / RFU PRB3 (11715151_x_at) / Fold change /veh PRB3 (11715151_x_at) / RFU TUBB4B (11761932_at) / Fold change /veh TUBB4B (11761932_at) / RFU CAPN14 (11732068_a_at) / Fold change /veh CAPN14 (11732068_a_at) / RFU TMCC2 (11721928_a_at) / Fold change /veh TMCC2 (11721928_a_at) / RFU IRGQ (11745062_a_at) / Fold change /veh IRGQ (11745062_a_at) / RFU FAM174B (11720279_a_at) / Fold change /veh FAM174B (11720279_a_at) / RFU TMPRSS4 (11748680_a_at) / Fold change /veh TMPRSS4 (11748680_a_at) / RFU FAM212B (11763350_a_at) / Fold change /veh FAM212B (11763350_a_at) / RFU PLEKHG5 (11743358_a_at) / Fold change /veh PLEKHG5 (11743358_a_at) / RFU ZSCAN30 (11745921_a_at) / Fold change /veh ZSCAN30 (11745921_a_at) / RFU CMKLR1 (11741424_a_at) / Fold change /veh CMKLR1 (11741424_a_at) / RFU LOC101060620 /// MAPK8IP1 (11723275_at) / Fold change /veh LOC101060620 /// MAPK8IP1 (11723275_at) / RFU SPTSSB (11747773_x_at) / Fold change /veh SPTSSB (11747773_x_at) / RFU PRSS12 (11739890_at) / Fold change /veh PRSS12 (11739890_at) / RFU BIN1 (11741810_x_at) / Fold change /veh BIN1 (11741810_x_at) / RFU WNT11 (11732464_a_at) / Fold change /veh WNT11 (11732464_a_at) / RFU C10orf10 (11716521_a_at) / Fold change /veh C10orf10 (11716521_a_at) / RFU C5orf56 (11738089_at) / Fold change /veh C5orf56 (11738089_at) / RFU CYB561 (11721691_x_at) / Fold change /veh CYB561 (11721691_x_at) / RFU ANKRD19P (11752326_a_at) / Fold change /veh ANKRD19P (11752326_a_at) / RFU OR2T12 /// OR2T33 /// OR2T8 (11738714_s_at) / Fold change /veh OR2T12 /// OR2T33 /// OR2T8 (11738714_s_at) / RFU VCAN (11748164_a_at) / Fold change /veh VCAN (11748164_a_at) / RFU JSRP1 (11732532_at) / Fold change /veh JSRP1 (11732532_at) / RFU KRTAP10-11 (11738290_x_at) / Fold change /veh KRTAP10-11 (11738290_x_at) / RFU MYO3A (11730013_a_at) / Fold change /veh MYO3A (11730013_a_at) / RFU EBF3 (11725865_a_at) / Fold change /veh EBF3 (11725865_a_at) / RFU CAMK2N1 (11719241_x_at) / Fold change /veh CAMK2N1 (11719241_x_at) / RFU C5orf56 (11738088_a_at) / Fold change /veh C5orf56 (11738088_a_at) / RFU OLFML3 (11715873_a_at) / Fold change /veh OLFML3 (11715873_a_at) / RFU LOC100653217 /// NTM (11731650_a_at) / Fold change /veh LOC100653217 /// NTM (11731650_a_at) / RFU MAPK11 (11762145_a_at) / Fold change /veh MAPK11 (11762145_a_at) / RFU FIZ1 (11724087_x_at) / Fold change /veh FIZ1 (11724087_x_at) / RFU OASL (11726364_x_at) / Fold change /veh OASL (11726364_x_at) / RFU SOX15 (11748057_x_at) / Fold change /veh SOX15 (11748057_x_at) / RFU CD79A (11719716_a_at) / Fold change /veh CD79A (11719716_a_at) / RFU HIST1H1D (11736915_at) / Fold change /veh HIST1H1D (11736915_at) / RFU CASKIN2 (11723855_a_at) / Fold change /veh CASKIN2 (11723855_a_at) / RFU LOC730098 (11760151_x_at) / Fold change /veh LOC730098 (11760151_x_at) / RFU OR4N2 (11742367_at) / Fold change /veh OR4N2 (11742367_at) / RFU PRRT2 (11749266_a_at) / Fold change /veh PRRT2 (11749266_a_at) / RFU SNX32 (11753110_a_at) / Fold change /veh SNX32 (11753110_a_at) / RFU CDHR5 (11726645_a_at) / Fold change /veh CDHR5 (11726645_a_at) / RFU RCAN1 (11760418_a_at) / Fold change /veh RCAN1 (11760418_a_at) / RFU FAM167A (11723789_a_at) / Fold change /veh FAM167A (11723789_a_at) / RFU FAM26E (11764081_at) / Fold change /veh FAM26E (11764081_at) / RFU ISYNA1 (11749810_s_at) / Fold change /veh ISYNA1 (11749810_s_at) / RFU ACY1 (11761880_at) / Fold change /veh ACY1 (11761880_at) / RFU 11764098_at / Fold change /veh 11764098_at / RFU SAMD14 (11745864_x_at) / Fold change /veh SAMD14 (11745864_x_at) / RFU NPB (11741838_a_at) / Fold change /veh NPB (11741838_a_at) / RFU TMPRSS6 (11731388_a_at) / Fold change /veh TMPRSS6 (11731388_a_at) / RFU KRTAP10-2 (11738614_at) / Fold change /veh KRTAP10-2 (11738614_at) / RFU ARHGAP8 /// PRR5-ARHGAP8 (11727945_x_at) / Fold change /veh ARHGAP8 /// PRR5-ARHGAP8 (11727945_x_at) / RFU KRTAP5-7 /// NADSYN1 (11734609_at) / Fold change /veh KRTAP5-7 /// NADSYN1 (11734609_at) / RFU RASL12 (11751679_a_at) / Fold change /veh RASL12 (11751679_a_at) / RFU CDKN2B (11736163_a_at) / Fold change /veh CDKN2B (11736163_a_at) / RFU PRF1 (11729649_at) / Fold change /veh PRF1 (11729649_at) / RFU, ZNF638 /// ZNF638-IT1 / Fold change vs veh, ZNF638 /// ZNF638-IT1 / RFU, PANK3 / Fold change vs veh, PANK3 / RFU, SH3YL1 / Fold change vs veh, SH3YL1 / RFU, ZEB2 / Fold change vs veh, ZEB2 / RFU, NRIP1 / Fold change vs veh, NRIP1 / RFU, PTTG1IP / Fold change vs veh, PTTG1IP / RFU, CAPN2 / Fold change vs veh, CAPN2 / RFU, MED14 / Fold change vs veh, MED14 / RFU, SNORA58 / Fold change vs veh, SNORA58 / RFU, C1orf63 / Fold change vs veh, C1orf63 / RFU, LRRFIP1 / Fold change vs veh, LRRFIP1 / RFU, NDUFAF7 / Fold change vs veh, NDUFAF7 / RFU, SLC12A2 / Fold change vs veh, SLC12A2 / RFU, IBTK / Fold change vs veh, IBTK / RFU, ESF1 / Fold change vs veh, ESF1 / Fold change vs veh, TMEM50B / RFU, TAOK1 / Fold change vs veh, TAOK1 / RFU, ACBD3 / Fold change vs veh, ACBD3 / RFU, TMA16 / Fold change vs veh, TMA16 / RFU, RWDD3 / Fold change vs veh, RWDD3 / RFU, BCAT1 / Fold change vs veh, BCAT1 / RFU, EDEM3 / Fold change vs veh, EDEM3 / RFU, TMEM33 / Fold change vs veh, TMEM33 / RFU, WDR75 / Fold change vs veh, WDR75 / RFU, AHCTF1 / Fold change vs veh, AHCTF1 / RFU, TFRC / Fold change vs veh, TFRC / RFU, ZDHHC17 / Fold change vs veh, ZDHHC17 / RFU, NOM1 / Fold change vs veh, NOM1 / RFU, ARL8B / Fold change vs veh, ARL8B / RFU, ZBTB11 / Fold change vs veh, ZBTB11 / RFU, TAMM41 / Fold change vs veh, TAMM41 / RFU, KIAA1704 /// LOC100996395 / Fold change vs veh, KIAA1704 /// LOC100996395 / RFU, ING1 / Fold change vs veh, ING1 / RFU, TRMT61B / Fold change vs veh, TRMT61B / RFU, FUBP3 / Fold change vs veh, FUBP3 / RFU, TP53 / Fold change vs veh, TP53 / RFU, TNKS2 / Fold change vs veh, TNKS2 / RFU, ZFP14 / Fold change vs veh, ZFP14 / RFU, ACTR2 / Fold change vs veh, ACTR2 / RFU, PPP3R1 / Fold change vs veh, PPP3R1 / RFU, PIK3R1 / Fold change vs veh, PIK3R1 / RFU, HNRNPA1 / Fold change vs veh, HNRNPA1 / RFU, RNF170 / Fold change vs veh, RNF170 / RFU, ZNF28 / Fold change vs veh, ZNF28 / RFU, RNGTT / Fold change vs veh, RNGTT / RFU, OGT / Fold change vs veh, OGT / RFU, BRD1 / Fold change vs veh, BRD1 / RFU, MARS / Fold change vs veh, MARS / RFU, ZNF655 / Fold change vs veh, ZNF655 / RFU, FAHD1 / Fold change vs veh, FAHD1 / RFU, BDP1 / Fold change vs veh, BDP1 / RFU, LRRCC1 / Fold change vs veh, LRRCC1 / RFU, ARID1A / Fold change vs veh, ARID1A / RFU, ZNF146 / Fold change vs veh, ZNF146 / RFU, ZNF330 / Fold change vs veh, ZNF330 / RFU, GPN3 / Fold change vs veh, GPN3 / RFU, C9orf123 / Fold change vs veh, C9orf123 / RFU, N4BP2L2 / Fold change vs veh, N4BP2L2 / RFU, ARFIP1 / Fold change vs veh, ARFIP1 / RFU, FAM179B / Fold change vs veh, FAM179B / RFU, BCL10 / Fold change vs veh, BCL10 / RFU, UHRF1BP1L / Fold change vs veh, UHRF1BP1L / RFU, BET1 / Fold change vs veh, BET1 / RFU, CNOT2 / Fold change vs veh, CNOT2 / RFU, ZNF268 / Fold change vs veh, ZNF268 / Fold change vs veh, ZNF507 / RFU, DGCR2 / Fold change vs veh, DGCR2 / RFU, WDSUB1 / Fold change vs veh, WDSUB1 / Fold change vs veh, HSP90B1 /// MIR3652 / RFU, ADSS / Fold change vs veh, ADSS / RFU, GK / Fold change vs veh, GK / RFU, ZNF148 / Fold change vs veh, ZNF148 / RFU, TAF9 / Fold change vs veh, TAF9 / RFU, SLC1A5 / Fold change vs veh, SLC1A5 / RFU, SLMO2 / Fold change vs veh, SLMO2 / RFU, ABCC4 / Fold change vs veh, ABCC4 / RFU, LOC101060439 /// RAP1B / Fold change vs veh, LOC101060439 /// RAP1B / RFU, RFX7 / Fold change vs veh, RFX7 / RFU, GTPBP10 / Fold change vs veh, GTPBP10 / RFU, CNEP1R1 / Fold change vs veh, CNEP1R1 / RFU, BIVM-ERCC5 /// ERCC5 / Fold change vs veh, BIVM-ERCC5 /// ERCC5 / RFU, ILF3 / Fold change vs veh, ILF3 / RFU 11762660_at / Fold change /veh 11762660_at / RFU VCAN (11757783_s_at) / Fold change /veh VCAN (11757783_s_at) / RFU DDX43 (11728927_at) / Fold change /veh DDX43 (11728927_at) / RFU KRT8 (11758188_x_at) / Fold change /veh KRT8 (11758188_x_at) / RFU NKD1 (11759106_at) / Fold change /veh NKD1 (11759106_at) / RFU SRD5A1 (11742802_a_at) / Fold change /veh SRD5A1 (11742802_a_at) / RFU TPSAB1 /// TPSB2 (11721975_s_at) / Fold change /veh TPSAB1 /// TPSB2 (11721975_s_at) / RFU GSTM3 (11746129_a_at) / Fold change /veh GSTM3 (11746129_a_at) / RFU IL23R (11737362_x_at) / Fold change /veh IL23R (11737362_x_at) / RFU TMEM51 (11727254_a_at) / Fold change /veh TMEM51 (11727254_a_at) / RFU PIWIL2 (11732686_x_at) / Fold change /veh PIWIL2 (11732686_x_at) / RFU ORM1 (11744905_x_at) / Fold change /veh ORM1 (11744905_x_at) / RFU CCDC152 (11743942_at) / Fold change /veh CCDC152 (11743942_at) / RFU ECM1 (11717891_a_at) / Fold change /veh ECM1 (11717891_a_at) / RFU IL23R (11748794_a_at) / Fold change /veh IL23R (11748794_a_at) / RFU TNFAIP8L3 (11732012_x_at) / Fold change /veh TNFAIP8L3 (11732012_x_at) / RFU MBOAT4 (11741988_at) / Fold change /veh MBOAT4 (11741988_at) / RFU 11764193_at / Fold change /veh 11764193_at / RFU TMEM53 (11763286_at) / Fold change /veh TMEM53 (11763286_at) / RFU MAGEB2 (11727129_at) / Fold change /veh MAGEB2 (11727129_at) / RFU TMEM200A (11744735_a_at) / Fold change /veh TMEM200A (11744735_a_at) / RFU CCDC152 (11751479_a_at) / Fold change /veh CCDC152 (11751479_a_at) / RFU FAM211A (11726209_a_at) / Fold change /veh FAM211A (11726209_a_at) / RFU RGS16 (11746705_a_at) / Fold change /veh RGS16 (11746705_a_at) / RFU VCAN (11755009_s_at) / Fold change /veh VCAN (11755009_s_at) / RFU RHOB (11743442_s_at) / Fold change /veh RHOB (11743442_s_at) / RFU RGS16 (11720943_a_at) / Fold change /veh RGS16 (11720943_a_at) / RFU RGS16 (11720944_at) / Fold change /veh RGS16 (11720944_at) / RFU, VPS4B / Fold change vs veh, VPS4B / RFU, CREB1 / Fold change vs veh, CREB1 / RFU, DNAJC13 / Fold change vs veh, DNAJC13 / RFU, GNAQ / Fold change vs veh, GNAQ / RFU, CDK5R1 / Fold change vs veh, CDK5R1 / RFU, ZRANB3 / Fold change vs veh, ZRANB3 / RFU, CUL4A / Fold change vs veh, CUL4A / RFU, CCNY / Fold change vs veh, CCNY / RFU, UFL1 / Fold change vs veh, UFL1 / RFU, COG3 / Fold change vs veh, COG3 / RFU, DIAPH2 / Fold change vs veh, DIAPH2 / RFU, SKA2 / Fold change vs veh, SKA2 / RFU, AFF3 / Fold change vs veh, AFF3 / RFU, LMF1 / Fold change vs veh, LMF1 / RFU, IPO11 / Fold change vs veh, IPO11 / RFU, DFFB / Fold change vs veh, DFFB / RFU, FOXP1 / Fold change vs veh, FOXP1 / RFU, CARD8 / Fold change vs veh, CARD8 / RFU, STRN3 / Fold change vs veh, STRN3 / RFU, ADK / Fold change vs veh, ADK / RFU, RASSF2 / Fold change vs veh, RASSF2 / RFU, WIPF1 / Fold change vs veh, WIPF1 / RFU, LARP1B / Fold change vs veh, LARP1B / RFU, RASA1 / Fold change vs veh, RASA1 / RFU, RB1 / Fold change vs veh, RB1 / RFU, PPFIA1 / Fold change vs veh, PPFIA1 / RFU, MAT2A / Fold change vs veh, MAT2A / RFU, CCT5 / Fold change vs veh, CCT5 / RFU, WDR92 / Fold change vs veh, WDR92 / RFU, CUX1 / Fold change vs veh, CUX1 / RFU, TTC7A / Fold change vs veh, TTC7A / RFU, TMEM135 / Fold change vs veh, TMEM135 / RFU, DEPTOR / Fold change vs veh, DEPTOR / RFU, CPM / Fold change vs veh, CPM / RFU, DNAJB6 / Fold change vs veh, DNAJB6 / RFU, CACNA2D3 / Fold change vs veh, CACNA2D3 / RFU, DTX4 / Fold change vs veh, DTX4 / RFU, TFCP2 / Fold change vs veh, TFCP2 / RFU, GMCL1 /// GMCL1P1 / Fold change vs veh, GMCL1 /// GMCL1P1 / RFU, AEBP2 / Fold change vs veh, AEBP2 / RFU, SNHG1 /// SNORD22 /// SNORD25 /// SNORD26 /// SNORD27 /// SNORD28 /// SNORD29 /// SNORD31 / Fold change vs veh, SNHG1 /// SNORD22 /// SNORD25 /// SNORD26 /// SNORD27 /// SNORD28 /// SNORD29 /// SNORD31 / Fold change (Aza/veh), C12orf56 (ProbeSet 11735607_a_at) / Fold change (ACY-1035/veh), C12orf56 (ProbeSet 11735607_a_at) / Fold change (Aza/veh), FGFR1OP (ProbeSet 11751329_s_at) / Fold change (ACY-1035/veh), FGFR1OP (ProbeSet 11751329_s_at) / Fold change (Aza/veh), VPS36 (ProbeSet 11739960_a_at) / Fold change (ACY-1035/veh), VPS36 (ProbeSet 11739960_a_at) / RFU SYPL1 (11715823_x_at) / Fold change /veh SYPL1 (11715823_x_at) / RFU IGFBP7 (11715501_s_at) / Fold change /veh IGFBP7 (11715501_s_at) / RFU REEP3 (11722064_at) / Fold change /veh REEP3 (11722064_at) / RFU IGLL1 (11728026_x_at) / Fold change /veh IGLL1 (11728026_x_at): dose or concentration left out as unconfirmed
Conditions: MV-4-11 cells, 48 hours

Nc1ccc(-c2cccs2)cc1NC(=O)c1ccc2c(c1)cc(C1CC1)n2CCN1CCOCC1 [ACY-1035]
Fold change /veh CAMK2N1 (11719241_x_at): 0.84
